From the supplement of paper PMC10307832

Key:
Experiment in all cases: relative viability (nuclei count vs DMSO), 5 days (fraction); higher = more cells survive
Tivantinib + Trametinib = compound: O=C1NC(=O)[C@@H](c2cn3c4c(cccc24)CCC3)[C@@H]1c1c[nH]c2ccccc12 [Tivantinib] + CC(=O)Nc1cccc(-n2c(=O)n(C3CC3)c(=O)c3c(Nc4ccc(I)cc4F)n(C)c(=O)c(C)c32)c1 [Trametinib] (partner 0.02 µM)
Summary of the method: (§1)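 Nuclei were stained with Hoechst during a one-step fixation (final 0.05% Triton X-100, 1% formaldehyde, 1 ug/ml Hoechst) carried out 5 days after dosing, then counted on 4× images. The cells, lung cancer lines in 1536-well plates, had been dosed by pin tool the day after seeding with one drug alone or a fixed anchor-drug dose plus five library-drug doses (not always all listed) in √10 steps. Relative viability is the nuclei count in treated wells divided by that in vehicle wells, and each value is the median of duplicate plates.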

Tivantinib + Pemetrexed = compound: O=C1NC(=O)[C@@H](c2cn3c4c(cccc24)CCC3)[C@@H]1c1c[nH]c2ccccc12 [Tivantinib] + Nc1nc2[nH]cc(CCc3ccc(C(=O)N[C@@H](CCC(=O)O)C(=O)O)cc3)c2c(=O)[nH]1 [Pemetrexed] (partner 0.2 µM)
Summary of the method: as §1

Tivantinib + Foretinib = compound: O=C1NC(=O)[C@@H](c2cn3c4c(cccc24)CCC3)[C@@H]1c1c[nH]c2ccccc12 [Tivantinib] + COc1cc2c(Oc3ccc(NC(=O)C4(C(=O)Nc5ccc(F)cc5)CC4)cc3F)ccnc2cc1OCCCN1CCOCC1 [Foretinib] (partner 0.25 µM)
Summary of the method: as §1

Crenolanib + Pemetrexed = compound: CC1(COc2ccc3c(c2)ncn3-c2ccc3cccc(N4CCC(N)CC4)c3n2)COC1 [Crenolanib] + Nc1nc2[nH]cc(CCc3ccc(C(=O)N[C@@H](CCC(=O)O)C(=O)O)cc3)c2c(=O)[nH]1 [Pemetrexed] (partner 0.2 µM)
Summary of the method: as §1

Cell Line | relative viability (Tivantinib + Trametinib; first compound 0.01 µM) | relative viability (Tivantinib + Trametinib; first compound 0.03162 µM) | relative viability (Tivantinib + Trametinib; first compound 0.1 µM) | relative viability (Tivantinib + Trametinib; first compound 0.3162 µM) | relative viability (Tivantinib + Pemetrexed; first compound 0.01 µM) | relative viability (Tivantinib + Pemetrexed; first compound 0.03162 µM) | relative viability (Tivantinib + Pemetrexed; first compound 0.1 µM) | relative viability (Tivantinib + Pemetrexed; first compound 0.3162 µM) | relative viability (Tivantinib + Foretinib; first compound 0.01 µM) | relative viability (Tivantinib + Foretinib; first compound 0.03162 µM) | relative viability (Tivantinib + Foretinib; first compound 0.1 µM) | relative viability (Tivantinib + Foretinib; first compound 0.3162 µM) | relative viability (Crenolanib + Pemetrexed; first compound 0.01 µM) | relative viability (Crenolanib + Pemetrexed; first compound 0.03162 µM) | relative viability (Crenolanib + Pemetrexed; first compound 0.1 µM) | relative viability (Crenolanib + Pemetrexed; first compound 0.3162 µM) | relative viability (Crenolanib + Pemetrexed; first compound 1 µM)
NCI-H1793 | 0.506 | 0.408 | 0.404 | 0.329 | 0.83 | 0.885 | 0.832 | 0.669 | 0.698 | 0.616 | 0.762 | 0.548 | 1.02 | 0.912 | 0.835 | 1.08 | 0.993
NCI-H596 | 0.897 | 0.839 | 0.774 | 0.678 | 0.503 | 0.406 | 0.453 | 0.426 | 0.855 | 0.835 | 1.1 | 0.895 | 0.462 | 0.481 | 0.47 | 0.513 | 0.507
NCI-H520 | 0.798 | 0.723 | 0.576 | 0.701 | 0.695 | 0.716 | 0.631 | 0.652 | 0.869 | 0.792 | 0.655 | 0.708 | 0.701 | 0.792 | 0.628 | 0.684 | 0.702
EKVX | 0.408 | 0.437 | 0.325 | 0.146 | 0.344 | 0.413 | 0.425 | 0.203 | 0.714 | 0.841 | 0.761 | – | 0.413 | 0.423 | 0.401 | 0.379 | 0.387
NCI-H358 | 0.127 | 0.124 | 0.147 | 0.128 | 0.178 | 0.177 | 0.191 | 0.167 | 0.716 | 0.754 | 0.508 | 0.273 | 0.176 | 0.169 | 0.176 | 0.178 | 0.188
H3255 | – | 0.5 | 0.642 | 0.234 | 0.554 | 0.586 | 0.598 | – | 0.806 | 0.933 | 0.802 | – | 0.597 | 0.563 | 0.544 | 0.553 | 0.589
NCI-H1650 | 0.451 | 0.663 | 0.666 | 0.536 | 0.417 | 0.4 | 0.471 | 0.315 | 1.08 | 1.11 | 1.02 | 0.972 | 0.438 | 0.395 | 0.38 | 0.371 | 0.459
NCI-H1395 | 0.987 | 1.11 | 1.02 | 0.83 | 1.03 | 0.843 | 0.975 | 0.782 | 1.11 | 1.03 | 0.966 | 0.828 | 0.88 | 0.768 | 0.924 | 0.831 | 0.864
NCI-H2228 | 0.608 | 0.396 | 0.494 | 0.227 | 0.363 | 0.319 | 0.329 | 0.352 | – | 0.841 | 0.678 | 0.714 | 0.3 | 0.33 | 0.34 | 0.337 | 0.324
